Laboratory results published in patent publication US20220204473A1, “COMPOUND AS IRAK INHIBITOR” (SHANGHAI MEIYUE BIOTECH DEVELOPMENT CO., LTD., priority 2018, published 2022).
Like-named read-outs stand apart in the source and are kept apart here.

Assays:
CYP1A2 = target: T1, CYP1A2 (Homo sapiens, UniProt P05177); assay: CYP450 inhibition in human liver microsomes, CYP1A2; type: in vitro ADME; conditions: human liver microsomes, probe phenacetin; read-out: IC50, subtype 1A2
T1 construct: tissue Corning (USA); host or cells: mixed human liver microsomes
T1 sequence (P05177 1-516): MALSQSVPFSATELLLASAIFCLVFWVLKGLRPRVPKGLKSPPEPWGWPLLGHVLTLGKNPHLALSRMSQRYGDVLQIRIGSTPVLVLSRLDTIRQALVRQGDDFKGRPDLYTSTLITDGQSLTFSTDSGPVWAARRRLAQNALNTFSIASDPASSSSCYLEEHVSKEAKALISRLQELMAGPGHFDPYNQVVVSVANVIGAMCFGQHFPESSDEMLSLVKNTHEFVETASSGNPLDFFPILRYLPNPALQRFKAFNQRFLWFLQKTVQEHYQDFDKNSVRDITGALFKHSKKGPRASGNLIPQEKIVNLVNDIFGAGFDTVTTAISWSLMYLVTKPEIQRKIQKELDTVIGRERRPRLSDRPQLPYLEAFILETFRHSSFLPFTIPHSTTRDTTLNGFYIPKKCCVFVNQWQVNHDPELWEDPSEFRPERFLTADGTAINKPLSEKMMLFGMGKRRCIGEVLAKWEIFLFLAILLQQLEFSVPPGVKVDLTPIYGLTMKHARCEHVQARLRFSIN
Protocol: This study was intended to investigate the inhibitory effect of the test compounds on five major CYP450 enzyme subtypes CYP1A2, 2C9, 2C19, 2D6 and 3A4 in human liver microsomes. The mixed human liver microsomes used in this assay were purchased from Corning (USA). The test compounds were co-incubated at 7 concentrations with human liver microsomes and five probe substrates (phenacetin for CYP1a2, diclofenac for CYP2C9, mephenytoin for CYP2C19, dextromethorphan for CYP2D6, midazolam for CYP3A4-M, mixed). The reaction was initiated by adding coenzyme NADPH, and terminated by adding acetonitrile containing internal standard. After the proteins were precipitated, the supernatant was centrifuged. The characteristic metabolites in the supernatant (acetaminophen for CYP1A2, 4-hydroxydiclofenac for CYP2C9, 4-hydroxymephenytoin for CYP2C19, dextrorphan for CYP2D6, 1-hydroxymidazolam for CYP3A4-M) were analyzed by LC-MS/MS. The influence of the test compounds on production of the characteristic metabolites was finally analyzed on the basis of the data obtained. A selective inhibitor (ketoconazole for CYP3A4-M) was used as positive control. All samples were tested in duplicate.

[1] = test system: Salmonella typhimurium TA98 and TA100; assay: Mini-Ames assay in Salmonella typhimurium; conditions: TA98 and TA100, with or without S9 mixture
Protocol: S9 homogenate: β-napthoflavone and phenobarbital induced rat liver microsome homogenate S9 fraction was used as the metabolic activation system for this assay. S9 was purchased from CHI Scientific, Inc. and stored in a freezer at −75° C. before use.
S9 mixture and mock mixture: S9 was quickly thawed to prepare a liquid mixture before the assay. 0.2 M PBS phosphate buffer (pH 7.4) was used as the mock mixture.
The overnight bacterial cultures were prepared from a stock of the strains. 80 μL of the stock was added to 20 mL of broth. For strains TA98 and TA100, 62.5 μL of ampicillin at a concentration of 0.8% were added per 10 mL of broth #2. The inoculated broth was then incubated on a thermostatic shaker overnight at 37° C. with a rotation speed of 160±10 rpm. The overnight cultures over the target absorbance were stored at 2-8° C. before use. The overnight cultures were used for genotyping and mutation tests.
The experimental system was exposed to the test compounds on plates in plate incorporation assay (Ames et al., 1975; N. Flamand et al., 2000).

[2] = target: T2, hERG potassium ion channel (Homo sapiens, UniProt Q12809); assay: hERG whole-cell patch clamp in HEK-293 cells; type: cell-based; conditions: HEK-293 cells stably expressing hERG, pH 7.4, inhibition for hERG at 30 μM concentration
T2 construct: expressed in transfected cells; host or cells: HEK-293
T2 sequence (Q12809 whole entry): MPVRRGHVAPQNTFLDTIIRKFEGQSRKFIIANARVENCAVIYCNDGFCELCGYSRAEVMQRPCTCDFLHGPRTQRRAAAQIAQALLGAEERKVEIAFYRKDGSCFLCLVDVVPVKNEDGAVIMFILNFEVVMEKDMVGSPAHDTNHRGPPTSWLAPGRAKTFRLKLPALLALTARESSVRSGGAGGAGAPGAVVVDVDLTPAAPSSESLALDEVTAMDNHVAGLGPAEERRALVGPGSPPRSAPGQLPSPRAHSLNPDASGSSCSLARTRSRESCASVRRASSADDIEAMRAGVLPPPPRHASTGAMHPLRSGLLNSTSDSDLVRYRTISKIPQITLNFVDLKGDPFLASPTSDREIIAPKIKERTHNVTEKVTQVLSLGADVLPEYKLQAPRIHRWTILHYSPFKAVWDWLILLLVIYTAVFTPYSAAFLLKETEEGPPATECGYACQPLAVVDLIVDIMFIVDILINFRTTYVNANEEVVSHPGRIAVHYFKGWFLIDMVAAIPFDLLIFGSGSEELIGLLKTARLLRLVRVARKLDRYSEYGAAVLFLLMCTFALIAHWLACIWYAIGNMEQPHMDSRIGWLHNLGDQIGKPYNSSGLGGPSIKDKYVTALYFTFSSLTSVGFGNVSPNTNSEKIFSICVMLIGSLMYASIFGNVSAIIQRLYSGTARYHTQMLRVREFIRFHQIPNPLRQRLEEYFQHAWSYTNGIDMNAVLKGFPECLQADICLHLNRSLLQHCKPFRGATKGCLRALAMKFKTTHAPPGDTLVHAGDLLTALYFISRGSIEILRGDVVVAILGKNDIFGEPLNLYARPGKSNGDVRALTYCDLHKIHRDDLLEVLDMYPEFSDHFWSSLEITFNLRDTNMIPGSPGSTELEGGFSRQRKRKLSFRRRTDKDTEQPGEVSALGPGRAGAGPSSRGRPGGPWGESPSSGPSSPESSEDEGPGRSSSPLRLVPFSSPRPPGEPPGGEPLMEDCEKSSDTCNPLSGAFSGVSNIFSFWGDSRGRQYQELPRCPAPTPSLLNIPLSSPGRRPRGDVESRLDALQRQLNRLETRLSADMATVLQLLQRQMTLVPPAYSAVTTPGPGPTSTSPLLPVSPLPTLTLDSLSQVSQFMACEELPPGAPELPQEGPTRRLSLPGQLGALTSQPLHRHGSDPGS
Protocol: This study evaluated the cardiac safety of the compounds according to the present disclosure, and an HEK-293 cell line stably expressing hERG potassium ion channel was used for detection.
Procedures: Test compound stocks were diluted in DMSO into 0.3 mM, 1 mM, and 3 mM dilutions respectively. […] The working solutions of the test compounds were ultrasonically treated for 20 min.
Patch clamping: Under an inverted microscope, recording electrodes were controlled by micromanipulator to contact with the cell. A negative voltage was applied to create a G-omega shaped connection. After forming the G-omega shaped connection, a rapid capacitance compensation was given. Under the continuous negative voltage, the cell membrane was ruptured to form a whole-cell recording configuration. In the whole-cell recording configuration, slow capacitance compensation was given, and the values of membrane capacitance and series resistance were recorded.
Voltage stimulation scheme for cellular hERG potassium current: The cell membrane clamping voltage was −80 mV; the voltage was first elevated from −80 mV to +30 mV, held for 2.5 sec, and rapidly raised to and held at −50 mV for 4 sec, thus exciting the hERG channel tail current. Data acquisition was performed every 10 sec. −50 mV was used for drain current detection.
The cover glasses planted with cells were placed in the recording chamber of an inverted microscope. Negative control and test compounds flowed through the recording chamber in an ascending order of concentration by gravity perfusion to quickly act on the cells. During the recording, the extracellular buffer was continuously circulated by a vacuum pump. The current detected in a cell in the negative control was used as the background for the cell. Each concentration was allowed to act for 5 min or until the current was stabilized. All experiments were performed at room temperature.
The current of each concentration was normalized first
and then the inhibition rate was calculated
Basic statistics were calculated for each concentration, including mean, standard deviation (SD), standard error (SE), and replicates (n). The dose-dependent curve was fitted with the following equation and the half maximal inhibitory concentration (IC50) of the test compounds was calculated:
wherein C represents the test compound concentration, IC50 represents the half maximal inhibitory concentration, and h represents the Hill coefficient. Curve fitting and calculation of IC50 were done by GraphPad Prism 5.0 software.

[3] = PK assay in rat (intravenous injection and oral gavage); type: in vivo; conditions: plasma, male SD rat; for Cmax: read-out: Peak concentration Cmax; for AUC(0-t): read-out: Area under curve AUC0-t; for AUC(0-inf): read-out: Area under curve AUC0-∞; for MRT: read-out: Average retention time MRT; for clearance: read-out: Clearance CL; for half-life: read-out: Half life t1/2 (converted); for Vd: read-out: Volume of distribution at steady state VZ; for bioavailability: read-out: Bioavailability F; for Tmax: read-out: Time to peak tmax
Protocol: The rats used for pharmacokinetic study in the example were male SPF-grade SD rats (B&K Universal, Shanghai).
Route of administration: a single dose by oral gavage or intravenous injection
Sampling points: 0.083 h, 0.25 h, 0.5 h, 1 h, 2 h, 4 h, 6 h, 8 h and 24 h after administration
Sample processing: 0.2 mL of venous blood was collected, and let stand on ice before centrifugation to separate plasma (centrifugation conditions: 8000 rpm, 6 min, 4° C.). The separated plasma was stored at −80° C. before analysis.
Internal standard working solution: An appropriate amount of tolbutamide internal standard stock solution at 645,000 ng/mL was added into a volumetric flask, and was diluted to the volume with methanol. The solution was well mixed to give an internal standard working solution with a concentration of 50 ng/mL.
Sample pretreatment: 50 μL of plasma was added into a 1.5-mL centrifuge tube, and added with 250 μL of internal standard solution (methanol of the same volume for the blank control). The solution was well mixed by vortex, and centrifuged for 5 min at 14000 rpm. 200 μL of the supernatant was transferred into a 96-well sample feeding plate, and loaded onto a LC-MS/MS system.
Column: ACQUITY UPLC BEH C18 1.7 μm (50 mm×2.10 mm)
Mobile phase: A: 0.1% aqueous formic acid; B: 0.1% formic acid in acetonitrile
The data processing system was Analyst software (Applied Biosystems, USA, ver 1.5.5).

[4] = 1 mg/kg, intravenous injection, 1 mpk, 5% DMSO + 15% Solutol + 80% Saline
[5] = 1 mg/kg, intravenous injection, 1 mpk
[6] = 5 mg/kg, oral administration, 5 mpk, 15% solutol HS15 + 85% PBS
[7] = 2 mg/kg, oral administration, 2 mpk, 5% DMSO + 15% Solutol + 80% Saline

| IC50 (CYP1A2) [µM] | Structure (SMILES) | Mini-Ames result [1] | inhibition at 5 min, 30 µM [2] [%] | Cmax [3, 4] [ng/mL] | AUC(0-t) [3, 5] [ng·h/mL] | AUC(0-inf) [3, 5] [ng·h/mL] | MRT [3, 5] [h] | clearance [3, 5] [mL/min/kg] | half-life [3, 5] [h] | Vd [3, 5] [L/kg] | AUC(0-t) [3, 6] [ng·h/mL] | AUC(0-inf) [3, 6] [ng·h/mL] | MRT [3, 6] [h] | bioavailability [3, 6] [%] | half-life [3, 6] [h] | Cmax [3, 6] [ng/mL] | Tmax [3, 6] [h] | also measured |
| --- | --- | --- | --- | --- | --- | --- | --- | --- | --- | --- | --- | --- | --- | --- | --- | --- | --- | --- |
| > 30 | CC(C)(O)c1cc2nn([C@H]3CC[C@](C)(O)CC3)cc2cc1NC(=O)c1cccc(C(C)(F)F)n1 [MY-004-165] | – | – | – | – | – | – | – | – | – | – | – | – | – | – | – | – | – |
| – | CN(C)c1cc2nn([C@H]3C[C@H](C(C)(C)O)C3)cc2cc1NC(=O)c1cccc(C(F)(F)F)n1 [MY-004-089] | – | – | 1580 | 3390 | 3510 | 5.2 | 4.89 | 5.5 | 2.26 | – | – | – | – | – | – | – | AUC(0-t) [3, 7]: 3000 ng·h/mL; AUC(0-inf) [3, 7]: 3550 ng·h/mL; MRT [3, 7]: 12.6 h; bioavailability [3, 7]: 44.2%; half-life [3, 7]: 8.11 h; Cmax [3, 7]: 227 ng/mL; Tmax [3, 7]: 4 h |
| – | COc1cc2nn([C@H]3CC[C@@](C)(O)CC3)cc2cc1NC(=O)c1cccc(C(F)(F)F)n1 [MY-004-126-2] | negative | 10.1 | 1430 | 4080 | 4540 | 8.81 | 3.74 | 7.59 | 2.4 | 15400 | 35900 | 10.3 | 75.8 | 24.8 | 1150 | 4 | – |
| > 30 | COc1cc2nn([C@H]3CC[C@](C)(O)CC3)cc2cc1NC(=O)c1cccc(C(F)(F)F)n1 [MY-004-126-1] | – | 12.8 | 1210 | 3150 | 3250 | 5.46 | 5.14 | 5.25 | 2.34 | 11500 | 17700 | 22.4 | 73.1 | 15.2 | 924 | 4 | – |
| – | CN(C)c1cc2nn([C@H]3CC[C@H](O)CC3)cc2cc1NC(=O)c1cccc(C(F)(F)F)n1 [MY-004-153] | – | 17.7 | – | – | – | – | – | – | – | – | – | – | – | – | – | – | – |

| Structure (SMILES) | IC50 (CYP1A2) [µM] | Mini-Ames result [1] | inhibition at 5 min, 30 µM [2] [%] | Cmax [3, 4] [ng/mL] | AUC(0-t) [3, 5] [ng·h/mL] | AUC(0-inf) [3, 5] [ng·h/mL] | MRT [3, 5] [h] | clearance [3, 5] [mL/min/kg] | half-life [3, 5] [h] | Vd [3, 5] [L/kg] | AUC(0-t) [3, 6] [ng·h/mL] | AUC(0-inf) [3, 6] [ng·h/mL] | MRT [3, 6] [h] | bioavailability [3, 6] [%] | half-life [3, 6] [h] | Cmax [3, 6] [ng/mL] | Tmax [3, 6] [h] | also measured |
| --- | --- | --- | --- | --- | --- | --- | --- | --- | --- | --- | --- | --- | --- | --- | --- | --- | --- | --- |
| COc1cc2nn([C@H]3CC[C@H](O)CC3)cc2cc1NC(=O)c1cccc(C(F)(F)F)n1 [MY-004-127-1] | > 30 | negative | 11.6 | 1420 | 5530 | 5880 | 7.54 | 2.84 | 6.29 | 1.55 | 18400 | 22500 | 9.16 | 66.5 | 8.84 | 1480 | 4.67 | – |
